Consider 20 molecules from patent publication US10899772B2, “IRAK4 modulators” (priority 2017, dated 2021).

Usually Ki stands for the dissociation constant of the complex between target and ligand, obtained from inhibition or displacement.

In the assay the target is human IRAK4 (Homo sapiens (Human), UniProt Q9NWZ3). Nature of the assay: IRAK4 kinase inhibition, Transcreener fluorescence polarization (ADP detection). The class given is biochemical. The conditions noted are these: recombinant full-length His6-IRAK4 1.25 nM; 125 μM ATP; 125 μM peptide; 90 min; Ki computed using ATP Km 642 μM. How it is done:
Compounds were assayed for inhibition of human IRAK4 and IRAK1 catalytic activity using recombinant enzyme produced from insect cells. Full-length IRAK4 protein, carrying an N-terminal His6-Tag, was obtained from Life Technologies (Carlsbad, Calif., USA). The IRAK1 construct was produced internally and was comprised of IRAK1 residues Arg194 to Ser712, preceded by an NH2-terminal His6 tag and the coding sequence for glutathione-S-transferase.
Kinase activities were assayed using the Transcreener-Fluorecescence polarization platform (BelBrook Labs, Madison, Wis., USA) that measures amounts of the reaction product, ADP.
384 well assay plates spotted with compound received 4 μl of a 2× substrate (ATP+peptide) mix in reaction buffer, followed by 4 μl of 2× enzyme diluted in reaction buffer.

Chain of human IRAK4 (Q9NWZ3 whole entry, the tested form may be a part): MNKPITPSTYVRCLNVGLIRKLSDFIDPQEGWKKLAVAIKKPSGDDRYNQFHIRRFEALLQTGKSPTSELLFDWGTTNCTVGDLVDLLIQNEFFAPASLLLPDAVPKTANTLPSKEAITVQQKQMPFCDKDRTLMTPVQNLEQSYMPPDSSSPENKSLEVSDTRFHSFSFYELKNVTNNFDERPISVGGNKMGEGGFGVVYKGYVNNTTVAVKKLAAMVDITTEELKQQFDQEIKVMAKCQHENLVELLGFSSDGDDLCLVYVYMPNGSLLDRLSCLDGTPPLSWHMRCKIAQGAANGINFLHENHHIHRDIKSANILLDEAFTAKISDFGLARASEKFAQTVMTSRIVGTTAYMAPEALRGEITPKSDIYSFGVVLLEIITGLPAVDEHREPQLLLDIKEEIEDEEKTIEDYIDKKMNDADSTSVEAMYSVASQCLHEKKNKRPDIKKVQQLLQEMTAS

With `CO[C@@H](C)c1cccc(C(=O)Nc2cc3c(cc2N2CCOCC2)C(=O)N(C[C@@H](F)C(C)(C)O)C3)n1` (racemic) [Example 24, N-[6-morpholino-1-oxo-2-[rac-(2R)-2-fluoro-3-hydroxy-3-methyl-butyl]isoindolin-5-yl]-6-[rac-(1S)-1-methoxyethyl] pyridine-2-carboxamide], the Ki came to 33 nM.
With `Cn1ccn2ncc(C(=O)Nc3cc4c(cc3N3CCOCC3)C(=O)N(C[C@@H](F)C(C)(C)O)C4)c2c1=O` [Example 26, N-[2-[(2R)-2-Fluoro-3-hydroxy-3-methyl-butyl]-6-morpholino-1-oxo-isoindolin-5-yl]-5-methyl-4-oxo-pyrazolo [1,5-a] pyrazine-3-carboxamide] the figure was 47 nM; with `CCn1cccc(C(=O)Nc2cc3c(cc2N2CCOCC2)C(=O)N(C[C@@H](F)C(C)(C)O)C3)c1=O` [Example 5, (R)-1-Ethyl-N-(2-(2-fluoro-3-hydroxy-3-methylbutyl)-6-morpholino-1-oxoisoindolin-5-yl)-2-oxo-1,2-dihydropyridine-3-carboxamide], 5.6 nM.
On to `C[C@H](O)c1cccc(C(=O)Nc2cc3c(cc2N2CCOCC2)C(=O)N(C[C@@H](F)C(C)(C)O)C3)n1` (racemic) [Example 22, N-[6-morpholino-1-oxo-2-[rac-(2R)-2-fluoro-3-hydroxy-3-methyl-butyl]isoindolin-5-yl]-6-[rac-(1S)-1-hydroxyethyl] pyridine-2-carboxamide], for which the inhibition constant (Ki) was 9.2 nM.
With `CC(C)(O)[C@H](F)CN1Cc2cc(NC(=O)c3ccc[nH]c3=O)c(N3CCOCC3)cc2C1=O` [Example 3, (R)-N-(2-(2-Fluoro-3-hydroxy-3-methylbutyl)-6-morpholino-1-oxoisoindolin-5-yl)-2-oxo-1,2-dihydropyridine-3-carboxamide] the figure was 8.2 nM; with `CC(C)(O)[C@H](F)CN1Cc2cc(NC(=O)c3cccc4[nH]cnc34)c(N3CCOCC3)cc2C1=O` [Example 32, N-[2-[(2R)-2-Fluoro-3-hydroxy-3-methyl-butyl]-6-morpholino-1-oxo-isoindolin-5-yl]-1H-benz-imidazole-4-carboxamide], 1.1 nM; with `CC(C)(O)[C@H](F)CN1Cc2cc(NC(=O)c3coc(N4CCOCC4)n3)c(N3CCOCC3)cc2C1=O` [Example 15, (R)-N-(2-(2-Fluoro-3-hydroxy-3-methylbutyl)-6-morpholino-1-oxoisoindolin-5-yl)-2-morpholino-oxazole-4-carboxamide], 4.6 nM.
For `COc1cccc(C(=O)Nc2cc3c(cc2N(C)C)C(=O)N(C[C@@H](F)C(C)(C)O)C3)n1` [Example 19, N-[6-(Dimethyl-amino)-2-[(2R)-2-fluoro-3-hydroxy-3-methyl-butyl]-1-oxo-isoindolin-5-yl]-6-methoxy-pyridine-2-carboxamide], the Ki came out at 1.5 nM.
As to `C[C@@H]1COCCN1c1nc(C(=O)Nc2cc3c(cc2N2CCOCC2)C(=O)N(C[C@@H](F)C(C)(C)O)C3)co1` (racemic) [Example 16, N-(2-((R)-2-fluoro-3-hydroxy-3-methylbutyl)-6-morpholino-1-oxoisoindolin-5-yl)-2-((R)-20-methyl-morpholino) oxazole-4-carboxamide], the inhibition constant Ki was found to be 7 nM.
Turning to `Cn1ncc(C(=O)Nc2cc3c(cc2N2CCOCC2)C(=O)N(C[C@@H](F)C(C)(C)O)C3)c1Cl` [Example 33, 5-Chloro-N-[2-[(2R)-2-fluoro-3-hydroxy-3-methyl-butyl]-6-morpholino-1-oxo-isoindolin-5-yl]-1-methyl-pyrazole-4-carboxamide], the Ki was found to be 51 nM.
On to `CC(C)(O)[C@H](F)CN1Cc2cc(NC(=O)c3cccc(C(F)(F)F)n3)c(N3CCOCC3)cc2C1=O` [Example 17, (R)—N-(2-(2-Fluoro-3-hydroxy-3-methylbutyl)-6-morpholino-1-oxoisoindolin-5-yl)-6-(trifluoromethyl)picolinamide], for which the Ki came to 2.5 nM.
Under `CC(C)(O)[C@H](F)CN1Cc2cc(NC(=O)c3cccc(CC(F)(F)F)n3)c(N3CCOCC3)cc2C1=O` (racemic) [Example 25, N-[6-morpholino-1-oxo-2-[rac-(2R)-2-fluoro-3-hydroxy-3-methyl-butyl]isoindolin-5-yl]-6-(2,2,2-trifluoroethyl)pyridine-2-carboxamide] stands 6.5 nM; under `CN(C)c1cc2c(cc1NC(=O)c1cccc(OC3CCNC3)n1)CN(C[C@@H](F)C(C)(C)O)C2=O` (stereo partly drawn) [Example 13, N-[6-(Dimethylamino)-2-[(2R)-2-fluoro-3-hydroxy-3-methyl-butyl]-1-oxo-isoindolin-5-yl]-6-pyrrolidin-3-yloxy-pyridine-2-carboxamide], 5.8 nM.
Take `CC(C)Oc1cccc(C(=O)Nc2cc3c(cc2N(C)C)C(=O)N(C[C@@H](F)C(C)(C)O)C3)n1` [Example 11, N-[6-(Dimethylamino)-2-[(2R)-2-fluoro-3-hydroxy-3-methyl-butyl]-1-oxo-isoindolin-5-yl]-6-isopropoxy-pyridine-2-carboxamide]: the Ki was 21 nM.
With `CO[C@H](C)c1cccc(C(=O)Nc2cc3c(cc2N2CCOCC2)C(=O)N(C[C@@H](F)C(C)(C)O)C3)n1` (racemic) [Example 23, N-[6-morpholino-1-oxo-2-[rac-(2R)-2-fluoro-3-hydroxy-3-methyl-butyl]isoindolin-5-yl]-6-[rac-(1R)-1-methoxyethyl] pyridine-2-carboxamide] the figure was 12 nM.
For the molecule `C[C@H]1COCCN1c1nc(C(=O)Nc2cc3c(cc2N2CCOCC2)C(=O)N(C[C@@H](F)C(C)(C)O)C3)co1` [Example 10, N-[2-[(2R)-2-Fluoro-3-hydroxy-3-methyl-butyl]-6-morpholino-1-oxo-isoindolin-5-yl]-2-[(3S)-3-methylmorpholin-4-yl]oxazole-4-carboxamide], the inhibition constant (Ki) was 7.6 nM.
Under `Cn1cccc(C(=O)Nc2cc3c(cc2N2CCOCC2)C(=O)N(C[C@@H](F)C(C)(C)O)C3)c1=O` [Example 4, (R)-N-(2-(2-Fluoro-3-hydroxy-3-methylbutyl)-6-morpholino-1-oxoisoindolin-5-yl)-1-methyl-2-oxo-1,2-dihydropyridine-3-carboxamide] stands 8 nM; under `Cc1ccc(-c2cc3c(cc2NC(=O)c2cnc(C)o2)CN(C[C@@H](F)C(C)(C)O)C3=O)nc1` [Example 14, (R)-N-(2-(2-Fluoro-3-hydroxy-3-methylbutyl)-6-(5-methyl-pyridin-2-yl)-1-oxoisoindolin-5-yl)-2-methyloxazole-5-carboxamide], 4.2 nM; under `C[C@@H](O)c1cccc(C(=O)Nc2cc3c(cc2N2CCOCC2)C(=O)N(C[C@@H](F)C(C)(C)O)C3)n1` (racemic) [Example 21, N-[6-morpholino-1-oxo-2-[rac-(2R)-2-fluoro-3-hydroxy-3-methyl-butyl]isoindolin-5-yl]-6-[rac-(1R)-1-hydroxyethyl] pyridine-2-carboxamide], 1.7 nM.
Under `CC(C)(O)[C@H](F)CN1Cc2cc(NC(=O)c3cnc4cccnn34)c(N3CCOCC3)cc2C1=O` [Example 1, (R)—N-(2-(2-Fluoro-3-hydroxy-3-methylbutyl)-6-morpholino-1-oxoisoindolin-5-yl)imidazo[1,2-b]pyridazine-3-carboxamide] stands 5.1 nM.
